Test results: US20150158914A1, “PEPTIDES, CONSTRUCTS AND USES THEREFOR” (priority 2010, published 2015)
Entries after “also recorded” stand apart in the source; their conditions may differ. Ends that are not written are not given here. * marks the point of attachment. FITC = O=C1OC2(c3ccc(O)cc3Oc3cc(O)ccc32)c2ccc(NC(=S)*)cc21

What was measured:
HepG2 cells [1] = assay: Pathway of peptide entry: pretreatment with cytochalasin D or heparin; format: cell-based, human; conditions: 30 min pretreatment, 10 μM peptide, 3 h; for effect of heparin pretreatment on peptide entry: 2 μg/ml heparin
Description: Cells were plated overnight at 1×10^5 per well in eight chamber slides in complete MEM medium containing 10% FCS. The cells were washed thrice with MEM medium, and pretreated for 30 min with either 10 μm cytochalasin D or 2 μg/ml of heparin in MEM at 37° C. Peptide was then added at a concentration of 10 μM and cells were incubated for 3 h at 37° and 5% CO2. The cells were washed with PBS, fixed with 4% formaldehyde and PBS for 30 min, and a drop of Prolong Gold antifade reagent with DAPI (Invitrogen cat# P36931) was added to each well. The slides were dried overnight in the dark, and examined by microscopy by using a Nikon E600 fluorescent microscope. Photos were taken using Nikon ACT-1 software.
Exactly how cell-permeable peptides pass through the plasma membrane of cells is still not fully understood. […] Actin elongation on the cell surface leads to an extension of the plasma membrane into the extracellular environment. When the plasma membrane fuses back with itself it forms macropinosomes, and in doing so encapsulates and internalizes a large volume of extracellular fluid. Another mechanism is via the binding of peptides to cell surface heparan sulphate proteoglycans, which leads to internalization of the peptide through an endocytic process. HepG2 cells were pretreated with cytochalasin D and heparin, and then incubated with FITC-labelled cell permeable peptides aa 16-22, and aa 16-35 for 3 h to determine whether either of the above two mechanisms mediated cell uptake of the X-protein peptides. Control cells were treated with the X-protein peptides but were not treated with either chemical. Cytochalasin D is an F-actin elongation inhibitor, which inhibits macropinocytosis by inhibiting extension of the plasma membrane. Heparin would be expected to antagonize the binding of the peptides to cell surface heparan sulphate proteoglycans.

HepG2 cells [2] = assay: Assay for cell permeability of X-protein peptides (fluorescence and confocal microscopy); format: cell-based, human; conditions: for uptake by HepG2 cells (cell permeability): FITC-labelled peptide 10 μM, 3 h, medium without FCS; for intracellular distribution (confocal slicing): FITC-labelled peptide, HepG2 cells
Description: The cells were then incubated overnight at 37° and 5% CO2, and then washed thrice with media without FCS. The X-protein peptide in 250 μl of appropriate media without FCS was added to the cells at a final concentration of 10 μM, and the slides incubated for 3 h at 37° C. and 5% CO2. The cells were washed with PBS, fixed with 4% formaldahyde in PBS for 30 min, and washed thrice with PBS. […] The slides were dried overnight in the dark, and examined by microscopy by using a Nikon E600 fluorescent microscope. Photos were taken using Nikon ACT-1 software. For further examination, slides were then examined by confocal microscopy using a Leica TCS-SP2 confocal microscope.

[3] = target: T1, X-protein N-terminal peptide 1-50 (Hepatitis B virus genotype C subtype adr, UniProt Q81163, DEL44-44/P38S/S41A/S42F/V5L); assay: Peptide binding assay: FITC-peptides on peptide 1-50-coated plates; conditions: FITC-peptide at 10, 20, 40 μg/ml, 30 min
T1 construct: The parent peptide containing aa 1-50 conjugated N-terminally to a biotin tag; purchased; host or cells: chemical synthesis
Description: Qligomerization peptides were received in powdered form, and were weighed and diluted in a sterile 10% DMSO solution to make a 10 mg/ml stock solution. The wells of a Reactibind neutravidin-coated 96 well plate (Thermoscientific cat #15507) were thrice washed with 200 μl of plate washing buffer. Peptide 1-50, which contains a biotin tag, was diluted to 10 μg/ml in wash buffer and 100 μl of the solution was placed into each well being used. The plate was incubated at room temperature for 2 h, and the wells washed thrice with 200 μl of wash buffer. Truncated fluorescent variants of peptide 1-50 at 40 μg/ml, 20 μg/ml, and 10 μg/ml were added to the wells in triplicate, and the plates incubated at room temperature for 30 min. The wells were then washed thrice with 200 μl of wash buffer under low light conditions, and the plate read on a Biotek fluorescent plate reader at an excitation wavelength of 490 nm and an emission wavelength of 520 nm.
A ligand-binding assay was performed using streptavidin-coated plates in order to define the minimum peptide motif needed for dimerization of the X-protein. In this scenario the X-protein monomer serves as its own ligand. […] A series of short peptides from the region encoding aa 1-50 were synthesized. The parent peptide containing aa 1-50 conjugated N-terminally to a biotin tag was added to the streptavidin coated plates. […] Non-biotinylated peptides encoding aa 1-20, 16-35, 21-40 and 34-53 were added at 10, 20, and 40 μg/ml to the wells coated with peptide aa 1-50. The smaller peptides were each conjugated to a FITC tag for detection using a fluorescent plate reader. […] Binding performed with lesser concentrations of the peptides was not significant. Even smaller peptides encompassing that region 16-35 were made to determine whether the aa 16-35 was the minimum peptide motif needed for X-protein dimerization. These peptides synthesized, namely aa 16-26, 16-24, and 16-22 were analyzed using the same peptide binding assay. […] Thus of the peptides examined, the minimal peptide motif needed for dimerization of the X-protein is the […] peptide 16-35.

adherent TK1 T cells = assay: Peptide uptake by attached TK1 cells; format: cell-based
Text: As above, the lymphocytic cell line TK1 in suspension was not able to take up the X-protein cell-permeable peptide aa 16-22. Once activated, circulating lymphocytes have the ability to adhere to the vascular endothelium, to attach to antigen presenting cells, and to attach to and move through the extracellular matrix. The fact that adherent monocytes took up the peptide raised the possibility that TK1 T cells attached to a surface might also be able to take up the X-protein cell permeable peptide aa 16-22. TK1 cells were adhered to MAdCAM-1-coated glass slides or left to bind directly to the surface of the glass slides. Cells attached to the slides were incubated with the X-protein cell-permeable peptide aa 16-22 for 3 h in RPMI without FCS. Virtually all TK1 cells attached via α4β7 to MAdCAM-1 took up the peptide, whereas only 50 to 60% of cells directly attached to the glass slide took up the peptide (FIG. 27).

[4] = system: nonadherent erythrocytes and platelets; assay: Peptide uptake in whole blood; format: cell-based; conditions: whole blood in 10 mM citrate buffer, 3 h
Description: Whole blood was incubated with the fluoresceinated X-protein cell-permeable peptide aa 16-22 for 3 h to determine whether erythrocytes and platelets are able to take up the peptide. Blood was collected from a finger prick and suspended in 10 mM citrate buffer to prevent the blood clotting. After incubation with peptide the cells were washed in PBS and a blood smear prepared on a glass slide. The cells were stained with Diff-Quik.

[5] = listed as X-protein cell-permeable peptide 16-22

Substance	effect of heparin pretreatment on peptide entry (HepG2 cells [1]; listed as aa 16-35)	effect of cytochalasin D pretreatment on peptide entry (HepG2 cells [1])	uptake by HepG2 cells (cell permeability) (HepG2 cells [2]; listed as aa 16-35)	intracellular distribution (confocal slicing) (HepG2 cells [2]; listed as aa 16-35)	binding to peptide 1-50 (fluorescence) [3]	uptake by adherent TK1 T cells (adherent TK1 T cells; adhered to MAdCAM-1-coated glass slides or to the slides directly)	TK1 cells that took up the peptide (adherent TK1 T cells; attached via α4β7 to MAdCAM-1, 3 h)	TK1 cells that took up the peptide (adherent TK1 T cells; directly attached to the glass slide, 3 h)	effect of heparin pretreatment on peptide entry (HepG2 cells [1]; listed as aa 16-22)	uptake by HepG2 cells (cell permeability) (HepG2 cells [2]; [5])	uptake by HepG2 cells (cell permeability) (HepG2 cells [2]; listed as aa 16-22)	intracellular distribution (confocal slicing) (HepG2 cells [2]; listed as aa 16-22)	uptake of the peptide, cells positive (HepG2 cells [2]; HepG2, 3 h, no FCS)	uptake by erythrocytes and platelets [4, 5]	uptake by erythrocytes and platelets ([4]; listed as X-protein cell-permeable peptide aa 16-22)
FITC-Acp-LCLRPVGAESRGRPVSGPFG [Peptide 16-35]	dependent on heparin binding; also recorded: effectively blocked peptide entry into the cells	no effect on the entry of the peptides into the cell	cell-permeable; also recorded: readily taken up by the cells	taken up into the cytoplasm and nucleus; also recorded: taken up into the cell cytoplasm, as well as into the nucleus	bound significantly more strongly to peptide 1-50; also recorded: binds to the X-protein N-terminal peptide 1-50										
FITC-LCLRPVG ({FITC}-LCLRPVG) [Peptide 16-22]		no effect on the entry of the peptides into the cell			could not match the strong binding shown by the parental peptide 16-35	took up	Virtually all	50 to 60 % of cells	dependent on heparin binding; also recorded: effectively blocked peptide entry into the cells	able to enter	cell-permeable, being taken up by cells at a level equivalent to that of the parental peptide aa 16-35; also recorded: taken up into the cells	taken up into both the cytoplasm and nucleus of cells	> 90 % cells positive	does not enter	None of the cell types present
